{"source": "patent US8367727B2", "about": "“Method of using abscisic acid to treat diseases and disorders” (priority 2006, dated 2013)", "key": {"db/db mice [1]": {"system": "db/db mice", "assay": "Intraperitoneal glucose tolerance test (IPGTT) in db/db mice", "assay_type": "in vivo", "procedure": "Experiment 1: mice (n=25) were fed high-fat (>40% energy from fat), isocaloric, isonitrogenous diets containing 0, 100, 200, 400, and 800 mg of a racemic (±) ABA mixture/kg diet for 36 days (Table 1) (Sigma). These doses were chosen based on the standard concentrations of TZDs utilized in the treatment of NIDDM. The mice were weighed and their food intake was recorded daily. On day 36 of the study fasted mice (12 h) were bled through the caudal vein and fasting blood glucose concentrations were determined. To investigate the ability of ABA to normalize glucose concentrations, an intraperitoneal glucose tolerance test (IPGTT) was performed on day 36 on the fasted mice. Briefly, mice were bled at 0, 10, 25, and 45 minutes following the administration of glucose (2 g/kg) for measurement of plasma glucose levels. […] Weights were recorded for WAT, interscapular brown adipose tissue (BAT), and liver.\nExperiment 2: The ABA dose utilized (100 mg ABA/kg) was based on the results obtained from the IPGTT of the ABA titration study (i.e., Experiment 1). Mice in experiment 2 were fed high-fat diets containing 0 or 100 mg ABA/kg for 36 days. Their body weights and food intake was recorded daily, and blood was collected on day 36 of the study during an IPGTT. This IPGTT included one additional 100 minutes time point. […] Weights were recorded for abdominal WAT, BAT, and liver."}, "[2]": {"system": "white adipose tissue (WAT) of db/db mice", "assay": "WAT histology: adipocyte area and macrophage infiltration", "assay_type": "in vivo", "description": "(§1) Hepatic and adipose sections were fixed in 10% buffered neutral formalin, embedded in paraffin, cut at thicknesses of 7 microns and later stained with hematoxylin and eosin (H&E) for histological examination of adipocyte hypertrophy and inflammatory lesions. Hepatic sections were scored based on the amount of lipodystrophy observed according to the Nonalcoholic steatohepatitis (NASH) scoring method, with a score of 0 signifying <5% of the cells contain lipid droplets and a score of 4 signifying that >75% of the cells contained lipids and a magnification of 400× (23). The final score was the average of five randomly chosen fields. The area of adipocytes from WAT was analyzed using Sigma Pro® 5.0 software at a magnification of 100×, and macrophage infiltration was determined by averaging the number of macrophages observed in five different fields at 400×."}, "db/db mice [3]": {"system": "db/db mice", "assay": "Liver histology, hepatic steatosis by NASH scoring method", "assay_type": "in vivo", "conditions": "day 36, P<0.02", "description": "as §1"}, "CD4+ T cells": {"system": "CD4+ T cells", "assay": "CFSE flow cytometry proliferation assay, Concanavalin A-stimulated splenocytes, CD4+ T cells", "assay_type": "cell-based, mice", "conditions": "100 mg ABA/kg diet; first 2 generations", "procedure": "Single cell suspensions were prepared from the spleen by gently crushing the spleens excised during the necropsy procedure between the frosted ends of microscope glass slides previously autoclaved. Tissue debris were removed by settling, erythrocytes were eliminated by hypotonic lysis and cells finally resuspended in complete RPMI (cRPMI, 10% fetal bovine serum (Hyclone, Logan, Utah), 25 mM HEPES buffer (Sigma, St. Louis, Mo.), 100 units/ml penicillin (Sigma), […] streptomycin (Sigma), 1 mM sodium pyruvate (Sigma), 1 mM nonessential aminoacids (Sigma), and 2 mM essential amino acids (Mediatech), and enumerated with a Coulter Z1 Single Particle Counter (Beckman Coulter, Miami, Fla.). […]\nSplenocytes at 10^6 cells/ml were seeded in 96-well, round-bottom microtiter plates and incubated incomplete RPMI with or without Concanavalin A (Sigma) at 2.5 μg/ml. […] Following 2 washes in Fluorescence activated cell sorting (FACS) buffer, cells were incubated with streptavidin-PeCy5 (Pharmingen, San Diego, Calif.) for the biotinylated anti-mouse CD4 antibody. Cells were analyzed by 3-color flow cytometry (CFSE, phycoerythrin and PeCy5) in a FACScalibur instrument (Becton Dickinson). Ten thousand events were acquired, and data were analyzed using the Cell Quest Pro™ software (Becton Dickinson). Proliferation was assessed by the decrease in fluorescent intensity of CFSE staining. […]"}, "PPAR γ": {"target": "T1, PPAR γ (Mus musculus, UniProt P37238)", "T1 construct": "expressed in transfected cells; host or cells: 3T3-L1 pre-adipocytes (ATCC)", "T1 sequence (P37238 1-505)": "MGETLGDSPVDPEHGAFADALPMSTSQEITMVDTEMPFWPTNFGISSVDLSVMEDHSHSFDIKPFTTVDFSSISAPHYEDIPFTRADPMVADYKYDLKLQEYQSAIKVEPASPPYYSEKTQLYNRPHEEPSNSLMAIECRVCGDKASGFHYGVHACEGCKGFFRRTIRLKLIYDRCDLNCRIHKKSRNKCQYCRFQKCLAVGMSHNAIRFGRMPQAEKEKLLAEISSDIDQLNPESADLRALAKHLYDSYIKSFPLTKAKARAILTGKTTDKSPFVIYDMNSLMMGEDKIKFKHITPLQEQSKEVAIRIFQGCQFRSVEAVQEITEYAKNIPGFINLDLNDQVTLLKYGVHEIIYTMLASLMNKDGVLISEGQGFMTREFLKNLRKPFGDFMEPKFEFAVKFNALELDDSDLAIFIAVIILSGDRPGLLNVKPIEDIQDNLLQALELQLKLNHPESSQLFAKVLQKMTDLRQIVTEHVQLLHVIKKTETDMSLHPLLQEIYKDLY", "conditions": "ABA 12.5 μM, rosiglitazone 1 μM; previously found (ref 48); cited from earlier work"}}, "data": [{"smiles": "CC1=CC(=O)CC(C)(C)C1(O)/C=C/C(C)=C\\C(=O)O", "note": "(racemic) [ABA, abscisic acid]", "values": [{"measurement": "response in glucose homeostasis during the IPGTT, dose comparison", "setting": "db/db mice [1]; Experiment 1, 100 mg ABA/kg dose", "result": "most favorable response"}, {"measurement": "response to the IPGTT", "setting": "db/db mice [1]; Experiment 1, day 36", "result": "improved response to the IPGTT"}, {"measurement": "glucose levels during IPGTT versus control", "setting": "db/db mice [1]; Experiment 2, 100 mg ABA/kg diet", "result": "significantly lower at every time point up to 100 minutes"}, {"measurement": "adipocyte size in WAT", "setting": "[2]; ABA-fed vs control-fed db/db mice", "result": "significantly more small adipocytes and fewer hypertrophic adipocytes"}, {"measurement": "macrophages infiltrating WAT", "setting": "[2]; ABA-fed vs control-fed, P<0.05", "result": "significantly lower number of macrophages"}, {"measurement": "hepatic steatosis (NASH scoring)", "setting": "db/db mice [3]", "result": "significantly mitigated"}, {"measurement": "CD4+ T cells RPI1", "setting": "CD4+ T cells", "result": 17.72}, {"measurement": "PPAR γ transactivation, comparison of the two agonists", "setting": "PPAR γ", "result": "equally effective"}]}]}
